According to US20230330221A1, “ADJUVANT BASED ON PEPTIDE NUCLEIC ACID” (priority 2019, published 2023):
Entries after “also recorded” stand apart in the source; their conditions may differ. Read-outs that look alike come from different tables or passages of the source.

Key:
[1] = tested on: A/Singapore/GP1908/2015 strain; format: in vivo; conditions: transnasal, 10 μg adjuvant + 1 μg HA split antigen per shot, BALB/c mouse, both first and second administrations; versus adjuvant-free group (FIG. 3A)
[2] = tested on: A/Singapore/GP1908/2015 strain; format: in vivo, BALB/c mouse; conditions: transnasal, 10 μg adjuvant per shot; rank among MIP01, adjuvant-free and CPP01 groups (FIG. 4A)
[3] = tested on: B/Maryland/15/2016 strain; format: in vivo, BALB/c mouse; conditions: subcutaneous, both first and second administrations
[4] = tested on: A/Singapore/GP1908/2015 strain; format: in vivo, BALB/c mouse; conditions: subcutaneous, both first and second administrations
[5] = tested on: B/Maryland/15/2016 strain; format: in vivo; conditions: transnasal, 10 μg adjuvant + 1 μg HA split antigen per shot, BALB/c mouse, both first and second administrations; versus adjuvant-free group; Mann-Whitney U test, p<0.05 (FIG. 3B)
[6] = tested on: A/Singapore/GP1908/2015 strain; format: in vivo, BALB/c mouse; conditions: subcutaneous, 1 μg adjuvant per shot, after the second administration; rank among MIP01, adjuvant-free and CPP01 groups (FIG. 2)
[7] = tested on: B/Maryland/15/2016 strain; format: in vivo, BALB/c mouse; conditions: transnasal, 10 μg adjuvant per shot; rank among MIP01, adjuvant-free and CPP01 groups (FIG. 4B)

| Substance | blood antigen-specific IgG titer against A/Singapore/GP1908/2015 strain [1] | antigen-specific IgA titer in the nasal cavity wash against A/Singapore/GP1908/2015 strain [2] | blood antigen-specific IgG titer against B/Maryland/15/2016 strain ([3]; 1 μg adjuvant + 1 μg HA split antigen per shot, BALB/c mouse, versus adjuvant-free group (FIG. 1B)) | blood antigen-specific IgG titer against B/Maryland/15/2016 strain ([3]; 1 μg adjuvant per shot, compared to the CPP01 administration group (FIG. 1B)) | blood antigen-specific IgG titer against A/Singapore/GP1908/2015 strain ([4]; 1 μg adjuvant + 1 μg HA split antigen per shot, BALB/c mouse, versus adjuvant-free group (FIG. 1A)) | blood antigen-specific IgG titer against A/Singapore/GP1908/2015 strain ([4]; 1 μg adjuvant per shot, compared to the CPP01 administration group (FIG. 1A)) | blood antigen-specific IgG titer against B/Maryland/15/2016 strain [5] | neutralizing antibody titer against A/Singapore/GP1908/2015 strain [6] | antigen-specific IgA titer in the nasal cavity wash against B/Maryland/15/2016 strain [7] |
| --- | --- | --- | --- | --- | --- | --- | --- | --- | --- |
| GRKKRRQRRRPPQ-G3PNA (C-terminal G3PNA conjugate; Human immunodeficiency virus) [MIP01] | higher as compared to that in the adjuvant-free group | highest | higher as compared to that in the adjuvant-free group | showed a higher blood antigen-specific IgG titer | higher as compared to that in the adjuvant-free group | showed a higher blood antigen-specific IgG titer | higher as compared to that in the adjuvant-free group; also recorded: significant increase in antibody titer with respect to the adjuvant-free group | highest value | highest |
| GRKKRRQRRRPPQ (Human immunodeficiency virus) [CPP01, reference compound] |  | lowest |  |  |  |  |  | lowest value | lowest |
